molecular target: human PDE1B enzyme (Homo sapiens (Human), UniProt Q01064); test: IMAP TR-FRET PDE1B enzymatic assay; type: biochemical; details: negative log of half-maximal molar inhibitory concentration; 200 nM FAM-cAMP; values given as bins
Procedure, shortened: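 Full-length GST-tagged human PDE1B (250 pg/well) in IMAP BSA buffer with 10 U/ml calmodulin and 2.5 mM CaCl2; compound pre-incubated 5 min at room temperature, then 200 nM (final) FAM-cAMP for 30 min. IMAP binding reagent/Tb added, 1 h; TR-FRET 520/490 ratio read. IC50 from sigmoidal dose-response fit.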

| SMILES | PDE1b (pIC50) |
| --- | --- |
| Cc1oc2ncnc(NC3(C)CC3)c2c1C(=O)N1CCC(c2ncc(F)cc2Cl)CC1 [Example 334, 5-[4-(3-Chloro-5-fluoropyridin-2-yl)piperidine-1-carbonyl]-6-methyl-N-(1-methylcyclopropyl)furo[2,3-d]pyrimidin-4-amine] | >8 |
| Cc1oc2ncnc(NC3(C)CC3)c2c1C(=O)NC(C)c1ccccc1 (stereo not shown) [Example 194, 6-Methyl-4-[(1-methylcyclopropyl)amino]-N-(1-phenylethyl)furo[2,3-d]pyrimidine-5-carboxamide] | >8 |
| Cc1oc2ncnc(NC3(C)CC3)c2c1C(=O)N1CCC(F)(c2ccccn2)CC1 [Example 62, 5-[4-Fluoro-4-(pyridin-2-yl)piperidine-1-carbonyl]-6-methyl-N-(1-methylcyclopropyl)furo[2,3-d]pyrimidin-4-amine] | >8 |
| COc1ccc2oc(CNC(=O)c3c(C)oc4ncnc(NC5(C)CC5)c34)nc2c1 [Example 714, N-[(5-Methoxy-1,3-benzoxazol-2-yl)methyl]-6-methyl-4-[(1-methylcyclopropyl)amino]furo[2,3-d]pyrimidine-5-carboxamide] | >8 |
| Cc1oc2ncnc(NC3(C)CC3)c2c1C(=O)N1CCc2c(ncnc2OCC(C)C)C1 [Example 807, 6-Methyl-N-(1-methylcyclopropyl)-5-[4-(2-methylpropoxy)-5H,6H,7H,8H-pyrido[3,4-d]pyrimidine-7-carbonyl]furo[2,3-d]pyrimidin-4-amine] | >8 |
| Cc1cnc(CNC(=O)c2c(C)oc3ncnc(NC4(C)CC4)c23)nc1 [Example 705, 6-Methyl-4-[(1-methylcyclopropyl)amino]-N-[(5-methylpyrimidin-2-yl)methyl]furo[2,3-d]pyrimidine-5-carboxamide] | >8 |
| COc1cnc(C2CCN(C(=O)c3c(C)oc4ncnc(NC5(C)CC5)c34)CC2)cn1 [Example 365, 5-[4-(5-Methoxypyrazin-2-yl)piperidine-1-carbonyl]-6-methyl-N-(1-methylcyclopropyl)furo[2,3-d]pyrimidin-4-amine] | >8 |
| CCC(NC(=O)c1c(C)oc2ncnc(NC3(C)CC3)c12)c1ccc(OC)cc1 (stereo not shown) [Example 475, N-[1-(4-Methoxyphenyl)propyl]-6-methyl-4-[(1-methylcyclopropyl)amino]furo[2,3-d]pyrimidine-5-carboxamide] | >8 |
| Cc1cnc(C2CCN(C(=O)c3c(C)oc4ncnc(NC5(C)CC5)c34)CC2)nc1 [Example 360, 6-Methyl-N-(1-methylcyclopropyl)-5-[4-(5-methylpyrimidin-2-yl)piperidine-1-carbonyl]furo[2,3-d]pyrimidin-4-amine] | >8 |

same assay, conditions: negative log of half-maximal molar inhibitory concentration; 200 nM FAM-cAMP; values given as bins; read-out: PDE1b (pIC50) (converted)

| SMILES | IC50 |
| --- | --- |
| Cc1oc2ncnc(NC3(C)CC3)c2c1C(=O)N1CCC(c2cncc(F)c2)C1 (stereo not shown) [Example 339, 5-[3-(5-Fluoropyridin-3-yl)pyrrolidine-1-carbonyl]-6-methyl-N-(1-methylcyclopropyl)furo[2,3-d]pyrimidin-4-amine] | 10 to 100 nM |
| CCc1ncnc2c1CCN(C(=O)c1c(C)oc3ncnc(NC4(C)CC4)c13)C2 [Example 23, 5-{4-Ethyl-5H,6H,7H,8H-pyrido[3,4-d]pyrimidine-7-carbonyl}-6-methyl-N-(1-methylcyclopropyl)furo[2,3-d]pyrimidin-4-amine] | 10 to 100 nM |
| COc1ncc2c(n1)CN(C(=O)c1c(C)oc3ncnc(NC4(C)CC4)c13)CC2 [Example 699, 5-{2-Methoxy-5H,6H,7H,8H-pyrido[3,4-d]pyrimidine-7-carbonyl}-6-methyl-N-(1-methylcyclopropyl)furo[2,3-d]pyrimidin-4-amine] | 100 to 1000 nM |
| Cc1oc2ncnc(NC3(C)CC3)c2c1C(=O)NCc1cnc(Cl)cn1 [Example 8, N-((5-Chloropyrazin-2-yl)methyl)-6-methyl-4-((1-methylcyclopropyl)amino)furo[2,3-d]pyrimidine-5-carboxamide] | 10 to 100 nM |
| Cc1oc2ncnc(NC3(C)CC3)c2c1C(=O)NC1(C)COC1 [Example 105, 6-Methyl-4-[(1-methylcyclopropyl)amino]-N-(3-methyloxetan-3-yl)furo[2,3-d]pyrimidine-5-carboxamide] | 10 to 100 nM |
| Cc1oc2ncnc(NC3(C)CC3)c2c1C(=O)N1CCc2c(ncnc2NC2CC2)C1 [Example 342, 5-[4-(Cyclopropylamino)-5H,6H,7H,8H-pyrido[3,4-d]pyrimidine-7-carbonyl]-6-methyl-N-(1-methylcyclopropyl)furo[2,3-d]pyrimidin-4-amine] | 10 to 100 nM |
| Cc1oc2ncnc(NC3(C)CC3)c2c1C(=O)NCc1cncnc1 [Example 647, 6-Methyl-4-[(1-methylcyclopropyl)amino]-N-(pyrimidin-5-ylmethyl)furo[2,3-d]pyrimidine-5-carboxamide] | 100 to 1000 nM |
| Cc1oc2ncnc(NC3(C)CC3)c2c1C(=O)NCc1ccn(C)n1 [Example 99, 6-Methyl-N-[(1-methyl-1H-pyrazol-3-yl)methyl]-4-[(1-methylcyclopropyl)amino]furo[2,3-d]pyrimidine-5-carboxamide] | 10 to 100 nM |
| Cc1oc2ncnc(NC3(C)CC3)c2c1C(=O)NC1(CO)CC1 [Example 146, N-[1-(Hydroxymethyl)cyclopropyl]-6-methyl-4-[(1-methylcyclopropyl)amino]furo[2,3-d]pyrimidine-5-carboxamide] | 10 to 100 nM |
| Cc1oc2ncnc(NC3(C)CC3)c2c1C(=O)n1cccn1 [Example 410, 6-Methyl-N-(1-methylcyclopropyl)-5-(1H-pyrazole-1-carbonyl)furo[2,3-d]pyrimidin-4-amine] | 100 to 1000 nM |
| COc1ccc(-c2cc(CNC(=O)c3c(C)oc4ncnc(NC5(C)CC5)c34)no2)cc1 [Example 326, N-{[5-(4-Methoxyphenyl)-1,2-oxazol-3-yl]methyl}-6-methyl-4-[(1-methylcyclopropyl)amino]furo[2,3-d]pyrimidine-5-carboxamide] | 10 to 100 nM |
| Cc1oc2ncnc(NC3(C)CC3)c2c1C(=O)N1CCC(c2cnn(C)c2)C1 (stereo not shown) [Example 321, 6-Methyl-5-[3-(1-methyl-1H-pyrazol-4-yl)pyrrolidine-1-carbonyl]-N-(1-methylcyclopropyl)furo[2,3-d]pyrimidin-4-amine] | 10 to 100 nM |
| Cc1oc2ncnc(NC3(C)CC3)c2c1C(=O)NCCn1ccnc1 [Example 189, N-[2-(1H-Imidazol-1-yl)ethyl]-6-methyl-4-[(1-methylcyclopropyl)amino]furo[2,3-d]pyrimidine-5-carboxamide] | 100 to 1000 nM |
| CCNC(=O)c1c(C)oc2ncnc(NC3(C)CC3)c12 [Example 82, N-Ethyl-6-methyl-4-[(1-methylcyclopropyl)amino]furo[2,3-d]pyrimidine-5-carboxamide] | 10 to 100 nM |
| Cc1oc2ncnc(NC3(C)CC3)c2c1C(=O)Nc1cnn(C2CCOCC2)c1 [Example 456, 6-Methyl-4-[(1-methylcyclopropyl)amino]-N-[1-(oxan-4-yl)-1H-pyrazol-4-yl]furo[2,3-d]pyrimidine-5-carboxamide] | 10 to 100 nM |
| CCCNC(=O)c1c(C)oc2ncnc(NC3(C)CC3)c12 [Example 211, 6-Methyl-4-[(1-methylcyclopropyl)amino]-N-propylfuro[2,3-d]pyrimidine-5-carboxamide] | 10 to 100 nM |
| COCC1(NC(=O)c2c(C)oc3ncnc(NC4(C)CC4)c23)CC1 [Example 148, N-[1-(Methoxymethyl)cyclopropyl]-6-methyl-4-[(1-methylcyclopropyl)amino]furo[2,3-d]pyrimidine-5-carboxamide] | 10 to 100 nM |
| Cc1oc2ncnc(NC3(C)CC3)c2c1C(=O)N1C[C@H]2CC[C@@H](C1)O2 [Example 499, 6-Methyl-N-(1-methylcyclopropyl)-5-[(1R,5S)-8-oxa-3-azabicyclo[3.2.1]octane-3-carbonyl]furo[2,3-d]pyrimidin-4-amine] | 100 to 1000 nM |
| CCCOc1ncnc2c1CCN(C(=O)c1c(C)oc3ncnc(NC4(C)CC4)c13)C2 [Example 806, 6-Methyl-N-(1-methylcyclopropyl)-5-f{4-propoxy-5H,6H,7H,8H-pyrido[3,4-d]pyrimidine-7-carbonyl}furo[2,3-d]pyrimidin-4-amine] | 10 to 100 nM |
| Cc1oc2ncnc(NC3(C)CC3)c2c1C(=O)N(C)Cc1nccs1 [Example 701, N,6-Dimethyl-4-[(1-methylcyclopropyl)amino]-N-(1,3-thiazol-2-ylmethyl)furo[2,3-d]pyrimidine-5-carboxamide] | 100 to 1000 nM |
| COc1ccc2[nH]c(CNC(=O)c3c(C)oc4ncnc(NC5(C)CC5)c34)cc2c1 [Example 570, N-[(5-Methoxy-1H-indol-2-yl)methyl]-6-methyl-4-[(1-methylcyclopropyl)amino]furo[2,3-d]pyrimidine-5-carboxamide] | 10 to 100 nM |
| Cc1oc2ncnc(NC3(C)CC3)c2c1C(=O)N1CCOC(c2cnn(C)c2)C1 (stereo not shown) [Example 121, 6-Methyl-5-[2-(1-methyl-1H-pyrazol-4-yl)morpholine-4-carbonyl]-N-(1-methylcyclopropyl)furo[2,3-d]pyrimidin-4-amine] | 100 to 1000 nM |
| Cc1ccc(Cl)c(NC(=O)c2c(C)oc3ncnc(NC4(C)CC4)c23)c1 [Example 256, N-(2-Chloro-5-methylphenyl)-6-methyl-4-[(1-methylcyclopropyl)amino]furo[2,3-d]pyrimidine-5-carboxamide] | 10 to 100 nM |
| Cc1oc2ncnc(NC3(C)CC3)c2c1C(=O)N(C)Cc1cccs1 [Example 224, N,6-Dimethyl-4-[(1-methylcyclopropyl)amino]-N-(thiophen-2-ylmethyl)furo[2,3-d]pyrimidine-5-carboxamide] | 10 to 100 nM |
| Cc1oc2ncnc(NC3(C)CC3)c2c1C(=O)N1CCc2ccncc2C1 [Example 637, 6-Methyl-N-(1-methylcyclopropyl)-5-(1,2,3,4-tetrahydro-2 7-naphthyridine-2-carbonyl)furo[2,3-d]pyrimidin-4-amine] | 100 to 1000 nM |

From patent US20250145633A1, “SUBSTITUTED FURANOPYRIMIDINE COMPOUNDS AS PDE1 INHIBITORS” (Dart NeuroScience, LLC, priority 2017, published 2025)
